Data reported in PubChem BioAssay AID248 (DTP/NCI, 2004).
Several values for one entry are separate records, joined by “and”; a condition that tells them apart may be missing. Equal entries are not always repeated. Toxic doses and inconclusive results are not listed. Cut-off read from the data, not from the text of the source: active = T/C of 150% or more; inactive = T/C below 125%.

System: L1210 leukemia ip in BDF1 mice, survival T/C
Assay: NCI In Vivo Anticancer Drug Screen. Data for tumor model L1210 Leukemia (intraperitoneal) in B6D2F1 (BDF1) mice
Settings: endpoint: mean survival time, higher = longer survival
How it was run: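 In this screen, tumor-bearing mice given compound are compared to those given vehicle, and their survival values are reported as a treated-to-control quotient.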

[1] = dose: 100.0 mg/kg/injection, schedule: Q04DX003 (ip), vehicle: saline with Tween-80
[2] = dose: 200.0 mg/kg/injection, schedule: Q04DX003 (ip), vehicle: saline with Tween-80
[3] = dose: 400.0 mg/kg/injection, schedule: Q04DX003 (ip), vehicle: saline with Tween-80
[4] = dose: 100.0 mg/kg/injection, schedule: Q01DX009 (ip), vehicle: Klucel (hydroxypropylcellulose) (HPC)
[5] = dose: 200.0 mg/kg/injection, schedule: Q01DX009 (ip), vehicle: Klucel (hydroxypropylcellulose) (HPC)
[6] = dose: 400.0 mg/kg/injection, schedule: Q01DX009 (ip), vehicle: Klucel (hydroxypropylcellulose) (HPC)
[7] = dose: 100.0 mg/kg/injection, schedule: Q01DX001 (ip), vehicle: saline with Tween-80
[8] = dose: 100.0 mg/kg/injection, schedule: Q01DX009 (ip), vehicle: other
[9] = dose: 200.0 mg/kg/injection, schedule: Q01DX009 (ip), vehicle: other
[10] = dose: 100.0 mg/kg/injection, schedule: Q04DX003 (ip), vehicle: saline
[11] = dose: 200.0 mg/kg/injection, schedule: Q04DX003 (ip), vehicle: saline
[12] = dose: 400.0 mg/kg/injection, schedule: Q04DX003 (ip), vehicle: saline
[13] = dose: 100.0 mg/kg/injection, schedule: Q04DX002 (ip), vehicle: saline with Tween-80
[14] = dose: 200.0 mg/kg/injection, schedule: Q04DX002 (ip), vehicle: saline with Tween-80

Measured: T/C

OCCNCc1ccc2ccccc2n1
inactive: dose: 75.0 mg/kg/injection, schedule: Q04DX003 (ip), vehicle: saline 96 % of control | dose: 150.0 mg/kg/injection, schedule: Q04DX003 (ip), vehicle: saline 100 % of control | dose: 300.0 mg/kg/injection, schedule: Q04DX003 (ip), vehicle: saline 96 % of control

C/C(=C1\C(=O)Nc2ccccc21)c1ccco1
inactive: [1] 101 % of control | [2] 104 % of control | [3] 104 % of control

O=C(Nc1cccc(Cl)c1Cl)N1CCN(c2ccccc2)CC1
inactive: [4] 92 % of control | [5] 96 % of control | [6] 97 % of control

Cc1cc(C(=O)CBr)c(CN2C(=O)c3ccccc3C2=O)c(=O)n1C
inactive: [7] 101 % of control

CCCCCCCCCCCCCCCCCC
inactive: dose: 100.0 mg/kg/injection, schedule: Q04DX002 (ip), vehicle: other 96 % of control | dose: 200.0 mg/kg/injection, schedule: Q04DX002 (ip), vehicle: other 92 % of control

CCC(C(O)c1ccc(F)cc1)C(O)(C(F)(F)F)C(F)(F)F (stereo not drawn)
inactive: dose: 50.0 mg/kg/injection, schedule: Q01DX009 (ip), vehicle: other 93 % of control | [8] 102 % of control | [1] 101 % of control | [9] 98 % of control | [2] 100 % of control | [3] 90 % of control

CCN1C(N)=NC(N)=NC1c1ccccc1 (stereo not drawn)
inactive: dose: 25.0 mg/kg/injection, schedule: Q01DX001 (ip), vehicle: Klucel (hydroxypropylcellulose) (HPC) 103 % of control | dose: 50.0 mg/kg/injection, schedule: Q01DX001 (ip), vehicle: Klucel (hydroxypropylcellulose) (HPC) 97 % of control | dose: 100.0 mg/kg/injection, schedule: Q01DX001 (ip), vehicle: Klucel (hydroxypropylcellulose) (HPC) 102 % of control and 103 % of control

COc1cc(/C(C)=N\N(C)C)ccc1O
inactive: dose: 50.0 mg/kg/injection, schedule: Q01DX001 (ip), vehicle: saline 100 % of control | dose: 100.0 mg/kg/injection, schedule: Q01DX001 (ip), vehicle: saline 96 % of control | dose: 200.0 mg/kg/injection, schedule: Q01DX001 (ip), vehicle: saline 100 % of control | dose: 400.0 mg/kg/injection, schedule: Q01DX001 (ip), vehicle: saline 96 % of control

COC(=O)CN1C(=O)c2ccccc2C1=O
inactive: [10] 95 % of control | [11] 101 % of control | [12] 98 % of control

CC(O)(C(=O)O)c1ccccc1 (stereo not drawn) (tested in a mixture with another compound)
inactive: [8] 94 % of control | [10] 92 % of control | [9] 98 % of control | [11] 103 % of control | dose: 400.0 mg/kg/injection, schedule: Q01DX009 (ip), vehicle: other 102 % of control | [12] 89 % of control

C(=C\c1cccnc1)/c1ccncc1
inactive: dose: 50.0 mg/kg/injection, schedule: Q04DX003 (ip), vehicle: saline with Tween-80 97 % of control | [1] 102 % of control

N#C/C(=N\N=Nc1ccccc1)c1cccc2ccccc12
inactive: dose: 100.0 mg/kg/injection, schedule: Q01DX009 (ip), vehicle: gum acacia 94 % of control | dose: 200.0 mg/kg/injection, schedule: Q01DX009 (ip), vehicle: gum acacia 91 % of control

O=C1c2cc(Br)ccc2-c2c(I)cc(Br)cc21
inactive: dose: 50.0 mg/kg/injection, schedule: Q01DX001 (ip), vehicle: carboxymethylcellulose (CMC) 103 % of control | dose: 100.0 mg/kg/injection, schedule: Q01DX001 (ip), vehicle: carboxymethylcellulose (CMC) 100 % of control | dose: 200.0 mg/kg/injection, schedule: Q01DX001 (ip), vehicle: carboxymethylcellulose (CMC) 100 % of control | dose: 400.0 mg/kg/injection, schedule: Q01DX001 (ip), vehicle: carboxymethylcellulose (CMC) 100 % of control

COc1ccc(NC(=O)c2cccc(C(=O)Nc3ccc(OC)cc3)c2)cc1
inactive: [4] 88 % of control | dose: 100.0 mg/kg/injection, schedule: Q04DX003 (ip), vehicle: Klucel (hydroxypropylcellulose) (HPC) 93 % of control | [5] 97 % of control | dose: 200.0 mg/kg/injection, schedule: Q04DX003 (ip), vehicle: Klucel (hydroxypropylcellulose) (HPC) 88 % of control | [6] 97 % of control | dose: 400.0 mg/kg/injection, schedule: Q04DX003 (ip), vehicle: Klucel (hydroxypropylcellulose) (HPC) 93 % of control

O=C(CBr)c1ccc(/C=C/c2ccc(Cl)cc2)cc1
inactive: dose: 100.0 mg/kg/injection, schedule: Q01DX009 (ip), vehicle: saline with Tween-80 94 % of control

CCOc1ccc(OCC)cc1
inactive: [1] 101 % of control | [2] 101 % of control | [3] 94 % of control

C/C(=N/O)c1ccc[nH]1
inactive: dose: 100.0 mg/kg/injection, schedule: Q01DX001 (ip), vehicle: other 103 % of control | dose: 200.0 mg/kg/injection, schedule: Q01DX001 (ip), vehicle: other 103 % of control | dose: 400.0 mg/kg/injection, schedule: Q01DX001 (ip), vehicle: other 103 % of control

COc1cccc(NC(=O)NC(C)(C)C)c1
inactive: dose: 50.0 mg/kg/injection, schedule: Q01DX009 (ip), vehicle: saline with Tween-80 95 % of control and 119 % of control | [7] 106 % of control | [13] 97 % of control and 103 % of control | [1] 105 % of control | dose: 200.0 mg/kg/injection, schedule: Q01DX001 (ip), vehicle: saline with Tween-80 100 % of control | [14] 94 % of control and 100 % of control | [2] 104 % of control | dose: 400.0 mg/kg/injection, schedule: Q01DX001 (ip), vehicle: saline with Tween-80 111 % of control | dose: 400.0 mg/kg/injection, schedule: Q01DX009 (ip), vehicle: saline with Tween-80 103 % of control and 108 % of control | dose: 400.0 mg/kg/injection, schedule: Q04DX002 (ip), vehicle: saline with Tween-80 97 % of control and 86 % of control | [3] 96 % of control

COc1ccccc1/C=N\N=C(N/N=C/c1ccccc1OC)N/N=C/c1ccccc1OC
inactive: dose: 15.0 mg/kg/injection, schedule: Q01DX Z (ip), vehicle: methylcellulose (MC) 96 % of control | dose: 30.0 mg/kg/injection, schedule: Q01DX Z (ip), vehicle: methylcellulose (MC) 108 % of control | dose: 60.0 mg/kg/injection, schedule: Q01DX Z (ip), vehicle: methylcellulose (MC) 101 % of control | dose: 60.0 mg/kg/injection, schedule: Q01DX Z (oral), vehicle: methylcellulose (MC) 102 % of control | dose: 120.0 mg/kg/injection, schedule: Q01DX Z (ip), vehicle: methylcellulose (MC) 102 % of control | dose: 120.0 mg/kg/injection, schedule: Q01DX Z (oral), vehicle: methylcellulose (MC) 100 % of control | dose: 240.0 mg/kg/injection, schedule: Q01DX Z (ip), vehicle: methylcellulose (MC) 97 % of control | dose: 325.0 mg/kg/injection, schedule: Q01DX Z (oral), vehicle: methylcellulose (MC) 86 % of control | dose: 360.0 mg/kg/injection, schedule: Q01DX Z (ip), vehicle: methylcellulose (MC) 100 % of control | dose: 480.0 mg/kg/injection, schedule: Q01DX Z (ip), vehicle: methylcellulose (MC) 110 % of control | dose: 480.0 mg/kg/injection, schedule: Q01DX Z (oral), vehicle: methylcellulose (MC) 104 % of control | dose: 675.0 mg/kg/injection, schedule: Q01DX Z (oral), vehicle: methylcellulose (MC) 108 % of control

Cc1ccc2c[c]1[Hg][CH2]COS2(=O)=O
inactive: dose: 3.12 mg/kg/injection, schedule: Q04DX002 (ip), vehicle: Klucel (hydroxypropylcellulose) (HPC) 93 % of control | dose: 6.25 mg/kg/injection, schedule: Q04DX002 (ip), vehicle: Klucel (hydroxypropylcellulose) (HPC) 101 % of control | dose: 12.5 mg/kg/injection, schedule: Q04DX002 (ip), vehicle: Klucel (hydroxypropylcellulose) (HPC) 102 % of control and 90 % of control

COc1ccccc1NC(=O)CSC(N)=O
inactive: dose: 75.0 mg/kg/injection, schedule: Q## X000 (ip), vehicle: carboxymethylcellulose (CMC) 100 % of control | dose: 125.0 mg/kg/injection, schedule: Q## X000 (ip), vehicle: carboxymethylcellulose (CMC) 105 % of control | dose: 175.0 mg/kg/injection, schedule: Q## X000 (ip), vehicle: carboxymethylcellulose (CMC) 100 % of control | dose: 200.0 mg/kg/injection, schedule: Q01DX Z (ip), vehicle: carboxymethylcellulose (CMC) 104 % of control | dose: 400.0 mg/kg/injection, schedule: Q01DX Z (ip), vehicle: carboxymethylcellulose (CMC) 105 % of control

CCCNC(=S)NNC(=O)c1ccncc1
inactive: [13] 100 % of control | [14] 118 % of control
